Source: BigSolDB 2.1

CCC(C)n1ncn(-c2ccc(N3CCN(c4ccc(OC[C@H]5CO[C@](Cn6cncn6)(c6ccc(Cl)cc6Cl)O5)cc4)CC3)cc2)c1=O (mixture of isomers)
solubility (mole fraction)
Conditions	283.15 K	288.15 K	293.15 K	298.15 K	303.15 K	308.15 K	313.15 K	318.15 K	323.15 K
in DMSO	0.000184	0.000237	0.000309	0.000391	0.000469	0.000579	0.000707	0.000888	0.00107
in ethanol	6.88e-06	9.34e-06	1.26e-05	1.66e-05	2.16e-05	2.83e-05	3.73e-05	5.03e-05	6.36e-05
in isopropanol	8.3e-06	1.04e-05	1.3e-05	1.57e-05	2.02e-05	2.48e-05	3.02e-05	3.65e-05	4.37e-05
in methanol	1.64e-05	2.14e-05	2.81e-05	3.7e-05	4.9e-05	6.17e-05	7.78e-05	9.7e-05	0.00012
in water	4.17e-09	6.55e-09	1.03e-08	1.55e-08	2.6e-08	3.69e-08	5.55e-08	8.36e-08	1.21e-07
